Reference: ChEMBL document CHEMBL1201862, “PubChem BioAssay data set” (2004)
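Where inhibition never reached the appropriate level, the endpoint shown equals the highest concentration tested. Otherwise, values were interpolated linearly from a five-concentration, 48-hour dose response in 96-well plates. GI50: concentration for 50% inhibition of growth.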 Calls of active or inactive are those of the source. Cut-off read from the data, not from the text of the source: active = GI50 up to about 1.1 µM and inactive = higher.

Key:
Test in all cases: inhibition of tumour cell growth, NCI panel, 48 h
SF-295 = test system: SF-295
NCI-H23 = test system: NCI-H23
HL-60 = test system: HL-60
MCF7 = test system: MCF7
HCT-15 = test system: HCT-15
CAKI-1 = test system: CAKI-1
M14 = test system: M14
HOP-62 = test system: HOP-62
UO-31 = test system: UO-31
OVCAR-4 = test system: OVCAR-4
EKVX = test system: EKVX
Malme-3M = test system: Malme-3M
DU-145 = test system: DU-145
U-251 = test system: U-251
UACC-62 = test system: UACC-62
RXF 393 = test system: RXF 393
HCT-116 = test system: HCT-116
COLO 205 = test system: COLO 205
SN12C = test system: SN12C
PC-3 = test system: PC-3

## CCN1CCC(O)(/C=C/c2ccc(C)cc2)C(C(=O)/C=C/c2ccc(C)cc2)C1 (stereo not given)
SF-295
  GI50: 10.6 µM (inactive)
NCI-H23
  GI50: 6.35 µM (inactive)
HL-60
  GI50: 1.79 µM (inactive)
MCF7
  GI50: 2.36 µM (inactive)
HCT-15
  GI50: 4.06 µM
CAKI-1
  GI50: 2.78 µM (inactive)
M14
  GI50: 2.83 µM (inactive)
HOP-62
  GI50: 12.5 µM (inactive)
UO-31
  GI50: 3.85 µM (inactive)
OVCAR-4
  GI50: 9.82 µM (inactive)
EKVX
  GI50: 13.2 µM (inactive)
Malme-3M
  GI50: 6.75 µM (inactive)
DU-145
  GI50: 11.8 µM (inactive)
U-251
  GI50: 3.12 µM (inactive)
UACC-62
  GI50: 3.08 µM (inactive)
RXF 393
  GI50: 2.79 µM (inactive)
HCT-116
  GI50: 1.91 µM (inactive)
COLO 205
  GI50: 1.75 µM (inactive)
SN12C
  GI50: 7.69 µM (inactive)
PC-3
  GI50: 4.49 µM (inactive)

## COc1ccc2nc3n(c2c1)C(=O)c1ccccc1-3
SF-295
  GI50: > 100 µM (inactive)
NCI-H23
  GI50: > 100 µM (inactive)
HL-60
  GI50: > 100 µM (inactive)
MCF7
  GI50: > 100 µM (inactive)
HCT-15
  GI50: > 100 µM
CAKI-1
  GI50: > 100 µM (inactive)
M14
  GI50: > 100 µM (inactive)
HOP-62
  GI50: > 100 µM (inactive)
UO-31
  GI50: > 100 µM (inactive)
OVCAR-4
  GI50: > 100 µM (inactive)
EKVX
  GI50: > 100 µM (inactive)
Malme-3M
  GI50: > 100 µM (inactive)
DU-145
  GI50: > 100 µM (inactive)
U-251
  GI50: > 100 µM (inactive)
UACC-62
  GI50: > 100 µM (inactive)
RXF 393
  GI50: > 100 µM (inactive)
HCT-116
  GI50: > 100 µM (inactive)
COLO 205
  GI50: > 100 µM (inactive)
SN12C
  GI50: > 100 µM (inactive)
PC-3
  GI50: > 100 µM (inactive)

## C=CC(=O)NC(O)(C(=O)OCC)C(F)(F)F (stereo not given)
SF-295
  GI50: > 100 µM (inactive)
NCI-H23
  GI50: > 100 µM (inactive)
HL-60
  GI50: 35 µM (inactive)
MCF7
  GI50: > 100 µM (inactive)
HCT-15
  GI50: > 100 µM
CAKI-1
  GI50: > 100 µM (inactive)
M14
  GI50: > 100 µM (inactive)
HOP-62
  GI50: > 100 µM (inactive)
UO-31
  GI50: > 100 µM (inactive)
OVCAR-4
  GI50: > 100 µM (inactive)
EKVX
  GI50: > 100 µM (inactive)
Malme-3M
  GI50: > 100 µM (inactive)
DU-145
  GI50: > 100 µM (inactive)
U-251
  GI50: > 100 µM (inactive)
UACC-62
  GI50: > 100 µM (inactive)
RXF 393
  GI50: > 100 µM (inactive)
HCT-116
  GI50: > 100 µM (inactive)
COLO 205
  GI50: > 100 µM (inactive)
SN12C
  GI50: > 100 µM (inactive)
PC-3
  GI50: > 100 µM (inactive)

## COc1ccccc1C(=O)NCC1CCCN2CCCCC12 (stereo not given)
SF-295
  GI50: 1.24 µM (inactive)
NCI-H23
  GI50: > 100 µM (inactive)
HL-60
  GI50: > 100 µM (inactive)
MCF7
  GI50: > 100 µM (inactive)
HCT-15
  GI50: > 100 µM
CAKI-1
  GI50: > 100 µM (inactive)
M14
  GI50: > 100 µM (inactive)
HOP-62
  GI50: > 100 µM (inactive)
UO-31
  GI50: > 100 µM (inactive)
OVCAR-4
  GI50: > 100 µM (inactive)
EKVX
  GI50: > 100 µM (inactive)
Malme-3M
  GI50: > 100 µM (inactive)
DU-145
  GI50: > 100 µM (inactive)
U-251
  GI50: > 100 µM (inactive)
UACC-62
  GI50: > 100 µM (inactive)
RXF 393
  GI50: > 100 µM (inactive)
HCT-116
  GI50: > 100 µM (inactive)
COLO 205
  GI50: > 100 µM (inactive)
SN12C
  GI50: > 100 µM (inactive)
PC-3
  GI50: > 100 µM (inactive)

## Nc1cc2c(nc3c4ccccc4c(N)cc3[n+]2-c2cccc3ccccc23)c2ccccc12.Nc1cc2c(nc3c4ccccc4ccc3[n+]2-c2cccc3ccccc23)c2ccccc12
SF-295
  GI50: 2.2 µM (inactive)
NCI-H23
  GI50: 1.15 µM (inactive)
HL-60
  GI50: 1.41 µM (inactive)
MCF7
  GI50: 0.507 µM (active)
HCT-15
  GI50: 2.97 µM
CAKI-1
  GI50: 3.66 µM (inactive)
M14
  GI50: 2 µM (inactive)
HOP-62
  GI50: 2.81 µM (inactive)
UO-31
  GI50: 2.59 µM (inactive)
OVCAR-4
  GI50: 1.71 µM (inactive)
EKVX
  GI50: 1.61 µM (inactive)
Malme-3M
  GI50: 1.6 µM (inactive)
DU-145
  GI50: 3.03 µM (inactive)
U-251
  GI50: 0.341 µM (active)
UACC-62
  GI50: 7.89 µM (inactive)
RXF 393
  GI50: 2.45 µM (inactive)
HCT-116
  GI50: 1.67 µM (inactive)
COLO 205
  GI50: 1.93 µM (inactive)
SN12C
  GI50: 2.49 µM (inactive)
PC-3
  GI50: 0.465 µM (active)
